Active and inactive are the calls of the source.
Tests used:
[1] = system: H9c2; test: Antioxidant activity against doxorubicin-induced rat H9c2 cells assessed as increase in SOD level upto 10 uM in presence of 3-TYP; assay type: functional, cell-based
[2] = system: H9c2; test: Antioxidant activity against doxorubicin-induced rat H9c2 cells assessed as increase in GSH level upto 10 uM; assay type: functional, cell-based
[3] = system: H9c2; test: Cardioprotective activity against doxorubicin-induced rat H9c2 cells assessed as increase in cell viability at 10 uM incubated for 24 hrs in presence of 3-TYP by CCK-8 assay; assay type: functional, cell-based
[4] = system: Mus musculus; test: Cardioprotective activity against doxorubicin-induced C57BL/6 mouse cardiomyopathy model assessed as reduction in Anp mRNA level at 2.5 mg/kg, ip administered for 7 days; assay type: functional, organism-based; conditions: time 7.0 day
[5] = system: H9c2; test: Cardioprotective activity against doxorubicin-induced rat H9c2 cells assessed as reduction in LDH release upto 10 uM; assay type: functional, cell-based
[6] = system: H9c2; test: Induction of mitochondrial membrane potential loss in doxorubicin-induced rat H9c2 cells incubated for 30 mins in prsence of 3-TYP by JC-1 staining based fluorescence microscopic analysis; assay type: cell-based
[7] = system: Mus musculus; test: Cardioprotective activity against doxorubicin-induced C57BL/6 mouse cardiomyopathy model assessed as collagen fraction volume at 2.5 mg/kg, ip administered for 7 days by masson staining based analysis; assay type: functional, organism-based; conditions: time 7.0 day
[8] = system: H9c2; test: Cardioprotective activity against doxorubicin-induced rat H9c2 cells assessed as increase in cell viability at 10 uM incubated for 24 hrs by CCK-8 assay; assay type: functional, cell-based
[9] = system: Mus musculus; test: Cardioprotective activity against doxorubicin-induced C57BL/6 mouse cardiomyopathy model assessed as reduction in Bnp mRNA level at 2.5 mg/kg, ip administered for 7 days; assay type: functional, organism-based; conditions: time 7.0 day
[10] = organism: Danio rerio; test: Cardioprotective activity against doxorubicin-induced Tg(cmlc2: GFP) Zebrafish assessed as reduction in cTnT mRNA level measured at 72 hrs post fertilization by qPCR analysis; assay type: functional, organism-based; conditions: dose <= 5.0 µM
[11] = system: H9c2; test: Antioxidant activity against doxorubicin-induced rat H9c2 cells assessed as decrease in MDA level upto 10 uM in presence of 3-TYP; assay type: functional, cell-based
[12] = system: H9c2; test: Upregulation of SIRT3 expression in rat H9c2 cells upto 10 uM by Western blot analysis; assay type: functional, cell-based
[13] = system: H9c2; test: Cardioprotective activity against doxorubicin-induced rat H9c2 cells assessed as downregulation of Anp mRNA level upto 10 uM qPCR analysis; assay type: functional, cell-based
[14] = system: H9c2; test: Antioxidant activity against doxorubicin-induced rat H9c2 cells assessed as decrease in MDA level upto 10 uM; assay type: functional, cell-based
[15] = system: Mus musculus; test: Cardioprotective activity against doxorubicin-induced C57BL/6 mouse cardiomyopathy model assessed as upregulation of SIRT3 level at 2.5 mg/kg, ip administered for 7 days by Western blot analysis; assay type: functional, organism-based; conditions: time 7.0 day
[16] = system: Mus musculus; test: Cardioprotective activity against doxorubicin-induced C57BL/6 mouse cardiomyopathy model assessed as reduction in cTnT mRNA level at 2.5 mg/kg, ip administered for 7 days; assay type: functional, organism-based; conditions: time 7.0 day
[17] = system: H9c2; test: Upregulation of OPA1 expression in rat H9c2 cells upto 10 uM by Western blot analysis; assay type: functional, cell-based
[18] = system: H9c2; test: Cardioprotective activity against doxorubicin-induced rat H9c2 cells assessed as increase in cell viability incubated for 24 hrs by CCK-8 assay; assay type: functional, cell-based; conditions: dose 1-10 µM
[19] = organism: Danio rerio; test: Cardioprotective activity against doxorubicin-induced Tg(cmlc2: GFP) Zebrafish assessed as reduction in Anp mRNA level measured at 72 hrs post fertilization by qPCR analysis; assay type: functional, organism-based; conditions: dose <= 5.0 µM
[20] = system: H9c2; test: Upregulation of SOD2 expression in doxorubicin-induced rat H9c2 cells transfected with SIRT3 siRNA at 10 uM by Western blot analysis; assay type: functional, cell-based
[21] = system: H9c2; test: Induction of ROS accumulation in doxorubicin-induced rat H9c2 cells assessed as reduction in fluorescence intensity upto 10 uM incubated for 30 min in presence of 3-TYP by DCFH-DA and PI staining based microscopic analysis; assay type: functional, cell-based
[22] = system: Mus musculus; test: Cardioprotective activity against doxorubicin-induced C57BL/6 mouse cardiomyopathy model assessed as upregulation of […] level at 2.5 mg/kg, ip administered for 7 days by Western blot analysis; assay type: functional, organism-based; conditions: time 7.0 day
[23] = organism: Danio rerio; test: Cardioprotective activity against doxorubicin-induced Tg(cmlc2: GFP) Zebrafish assessed as restoration of normal heart structure at 5 uM measured at 72 hrs post fertilization; assay type: functional, organism-based
[24] = system: H9c2; test: Cardioprotective activity against doxorubicin-induced rat H9c2 cells assessed as downregulation of cTnT mRNA level upto 10 uM qPCR analysis; assay type: functional, cell-based
[25] = system: H9c2; test: Induction of ROS accumulation in doxorubicin-induced rat H9c2 cells transfected with SIRT3 siRNA assessed as reduction in fluorescence intensity at 10 uM incubated for 30 min in presence of 3-TYP by DCFH-DA and PI staining based microscopic analysis; assay type: functional, cell-based
[26] = system: H9c2; test: Upregulation of OPA1 expression in doxorubicin-induced rat H9c2 cells transfected with SIRT3 siRNA at 10 uM by Western blot analysis; assay type: functional, cell-based
[27] = system: Mus musculus; test: Cardioprotective activity against doxorubicin-induced C57BL/6 mouse cardiomyopathy model assessed as upregulation of SOD2 level at 2.5 mg/kg, ip administered for 7 days by Western blot analysis; assay type: functional, organism-based; conditions: time 7.0 day
[28] = organism: Mus musculus; test: Antioxidant activity against doxorubicin-induced C57BL/6 mouse assessed as decrease in MDA level in heart; assay type: functional, organism-based
[29] = system: H9c2; test: Induction of ROS accumulation in doxorubicin-induced rat H9c2 cells assessed as reduction in fluorescence intensity incubated for 30 min by DCFH-DA and PI staining based microscopic analysis; assay type: functional, cell-based; conditions: dose 1-10 µM
[30] = system: H9c2; test: Antioxidant activity against doxorubicin-induced rat H9c2 cells assessed as increase in SOD level upto 10 uM; assay type: functional, cell-based
[31] = system: H9c2; test: Cardioprotective activity against doxorubicin-induced rat H9c2 cells assessed as reduction in LDH release upto 10 uM in presence of 3-TYP; assay type: functional, cell-based
[32] = system: H9c2; test: Cardioprotective activity against doxorubicin-induced rat H9c2 cells assessed as increase in cell viability at 10 uM incubated for 24 hrs in presence of EX527 by CCK-8 assay; assay type: functional, cell-based
[33] = system: Mus musculus; test: Cardioprotective activity against doxorubicin-induced C57BL/6 mouse cardiomyopathy model assessed as collagen fraction volume at 2.5 mg/kg, ip administered for 7 days by Sirius staining based analysis; assay type: functional, organism-based; conditions: time 7.0 day
[34] = system: H9c2; test: Induction of mitochondrial membrane potential loss in doxorubicin-induced rat H9c2 cells transfected with SIRT3 siRNA incubated for 30 mins in prsence of 3-TYP by JC-1 staining based fluorescence microscopic analysis; assay type: cell-based
[35] = system: H9c2; test: Upregulation of SOD2 expression in rat H9c2 cells upto 10 uM by Western blot analysis; assay type: functional, cell-based
[36] = system: H9c2; test: Induction of mitochondrial membrane potential loss in doxorubicin-induced rat H9c2 cells incubated for 30 mins by JC-1 staining based fluorescence microscopic analysis; assay type: cell-based; conditions: dose 1-10 µM
[37] = organism: Danio rerio; test: Cardioprotective activity against doxorubicin-induced Tg(cmlc2: GFP) Zebrafish at 15 uM measured at 72 hrs post fertilization; assay type: functional, organism-based
[38] = system: Danio rerio; test: Cardioprotective activity against doxorubicin-induced Tg(cmlc2: GFP) Zebrafish assessed as […] at 5 uM measured at 72 hrs post fertilization; assay type: functional, organism-based
[39] = system: H9c2; test: Cardioprotective activity against doxorubicin-induced rat H9c2 cells assessed as downregulation of Bnp mRNA level upto 10 uM qPCR analysis; assay type: functional, cell-based
[40] = organism: Danio rerio; test: Cardioprotective activity against doxorubicin-induced Tg(cmlc2: GFP) Zebrafish at 5 uM measured at 72 hrs post fertilization; assay type: functional, organism-based
[41] = system: H9c2; test: Antioxidant activity against doxorubicin-induced rat H9c2 cells assessed as increase in GSH level upto 10 uM in presence of 3-TYP; assay type: functional, cell-based
[42] = organism: Mus musculus; test: Antioxidant activity against doxorubicin-induced C57BL/6 mouse assessed as increase in GSH level in heart; assay type: functional, organism-based
[43] = organism: Danio rerio; test: Cardioprotective activity against doxorubicin-induced Tg(cmlc2: GFP) Zebrafish assessed as reduction in Bnp mRNA level measured at 72 hrs post fertilization by qPCR analysis; assay type: functional, organism-based
[44] = system: Danio rerio; test: Cardioprotective activity against doxorubicin-induced Zebrafish cardiomyopathy model assessed as survival rate at 15 uM fertilized for 24 hrs followed by compound administration for 72 hrs and measured at 96 hrs post fertilization by inverted fluorescence microscopic analysis; assay type: functional
[45] = system: Danio rerio; test: Cardioprotective activity against doxorubicin-induced Zebrafish cardiomyopathy model at 5 to 15 uM fertilized for 24 hrs followed by compound administration for 72 hrs and measured at 96 hrs post fertilization by inverted fluorescence microscopic analysis; assay type: functional, organism-based; conditions: dose 5-15 µM
[46] = organism: Danio rerio; test: Cardioprotective activity against doxorubicin-induced Tg(cmlc2: GFP) Zebrafish assessed as restoration of normal heart structure at 10 uM measured at 72 hrs post fertilization; assay type: functional, organism-based
[47] = system: Danio rerio; test: Cardioprotective activity against doxorubicin-induced Zebrafish cardiomyopathy model assessed as survival rate at 10 uM fertilized for 24 hrs followed by compound administration for 72 hrs and measured at 96 hrs post fertilization by inverted fluorescence microscopic analysis; assay type: functional
[48] = Toxicity in zebrafish embryos assessed as survival at upto 40 uM fertilized for 24 hrs followed by compound administration for 72 hrs and measured at 96 hrs post fertilization; design: species or system Danio rerio; conditions: in vivo
[49] = system: Danio rerio; test: Cardioprotective activity against doxorubicin-induced Tg(cmlc2: GFP) Zebrafish assessed as […] at 10 uM measured at 72 hrs post fertilization; assay type: functional, organism-based
[50] = system: Danio rerio; test: Cardioprotective activity against doxorubicin-induced Zebrafish cardiomyopathy model assessed as survival rate at 5 uM fertilized for 24 hrs followed by compound administration for 72 hrs and measured at 96 hrs post fertilization by inverted fluorescence microscopic analysis; assay type: functional

C[C@@]12CC[C@@H]3[C@@](CC[C@H]4[C@@]3(C)CCC[C@@]4(C)C(=O)N3CCN(C(=O)c4ccccc4C(=O)O)CC3)(CC1=O)C2
inactive: Activity [3] | Activity [32]
active: Activity [1] | Activity [2] | Activity [4] | Activity [5] | Activity [6] | Activity [7] | Activity [8] | Activity [9] | Activity [10] Dose-Dependent Effect | Activity [11] | Activity [12] | Activity [13] | Activity [14] | Activity [15] | Activity [16] | Activity [17] | Activity [18] Dose-Dependent Effect | Activity [19] Dose-Dependent Effect | Activity [20] | Activity [21] | Activity [22] | Activity [23] | Activity [24] | Activity [25] | Activity [26] | Activity [27] | Activity [28] | Activity [29] Dose-Dependent Effect | Activity [30] | Activity [31] | Activity [33] | Activity [34] | Activity [35] | Activity [36] Dose-Dependent Effect | Activity [37] | Activity [38] | Activity [39] | Activity [40] | Activity [41] | Activity [42] | Activity [43] Dose-Dependent Effect

C[C@@]12CC[C@@H]3[C@@](CC[C@H]4[C@@]3(C)CCC[C@@]4(C)C(=O)N3CCN(C(=O)/C=C/C(=O)O)CC3)(CC1=O)C2
active: Activity [45]
50%: survival at 15 µM [44]

CC(CC(=O)O)C(=O)N1CCN(C(=O)[C@]2(C)CCC[C@@]3(C)[C@@H]4CC[C@@]5(C)C[C@]4(CC[C@@H]32)CC5=O)CC1 (stereo partly specified)
active: Activity [45]

CC1CCCC(C(=O)O)C1C(=O)N1CCN(C(=O)[C@]2(C)CCC[C@@]3(C)[C@@H]4CC[C@@]5(C)C[C@]4(CC[C@@H]32)CC5=O)CC1 (stereo partly specified)
active: Activity [45]

C[C@@]12CC[C@@H]3[C@@](CC[C@H]4[C@@]3(C)CCC[C@@]4(C)C(=O)O)(CC1=O)C2 [ISOSTEVIOL]
active: Activity [46] | Activity [45] | Activity [49]
Non-Toxic: Activity [48]
43%: survival at 10 µM [47]

C[C@@]12CC[C@@H]3[C@@](CC[C@H]4[C@@]3(C)CCC[C@@]4(C)C(=O)N3CCN(C(=O)C4=C(C(=O)O)CCCC4)CC3)(CC1=O)C2
Non-Toxic: Activity [48]
active: Activity [10] Dose-Dependent Effect | Activity [19] Dose-Dependent Effect | Activity [23] | Activity [38] | Activity [43] Dose-Dependent Effect
85%: Activity [50]

CC(C)(C)OC(=O)N1CCN(C(=O)[C@]2(C)CCC[C@@]3(C)[C@@H]4CC[C@@]5(C)C[C@]4(CC[C@@H]32)CC5=O)CC1
active: Activity [45]

C[C@@]12CC[C@@H]3[C@@](CC[C@H]4[C@@]3(C)CCC[C@@]4(C)C(=O)N3CCNCC3)(CC1=O)C2
active: Activity [45]

Reference: ChEMBL document CHEMBL5543130, “Design, Synthesis, and In Vivo Evaluation of Isosteviol Derivatives as New SIRT3 Activators with Highly Potent Cardioprotective Effects” (J Med Chem, 2024)
